Experimental data as given in patent publication US20160015064A1, “COMPOUNDS, COMPOSITIONS, AND METHODS FOR MODULATING SWEET TASTE” (CHROMOCELL CORPORATION, priority 2013, published 2016).
Counter-ions that a name gives are not always drawn.

How the values were obtained:
Format in all cases: in vivo, humans
[1] = system: perception of the sweet taste of an aqueous solution of sweetener; assay: Two-alternative forced choice sip and spit method (2AFC); conditions: compound 20 ppm with positive 2AFC
Protocol: The effect of the test compounds on the perception of the sweet taste of an aqueous solution of sweetener in humans was evaluated using a two-alternative forced choice “sip and spit” method (2AFC).
(§1) The aqueous sweetener solutions were prepared by adding, fructose, sucrose or glucose (by weight), to water to achieve the desired concentration.
Compounds were first prepared as a 500-fold concentrated stock solution in 100% ethanol. These concentrated stocks were then added to the aqueous sweetener solutions to result in a final ethanol concentration of 0.2%. The control (positive and negative) samples were also normalized to 0.2% ethanol. This level of ethanol was not seen to contribute any perceived sweetness.
The 2AFC test used for compound evaluation was a blind and randomized test where taste panelists (n=15) evaluate a pair of sweetener solutions at a time—one sample contains aqueous sweetener solution plus compound (i.e. test) while the other contains aqueous sweetener solution at higher concentration without compound (i.e. positive control). Each test sample was compared against a positive control. For example, if the test sample contained 1× sweetener concentration with compound (e.g. 5% sucrose with compound), the positive control sample contained a 1.1× sweetener concentration (e.g. 5.5% sucrose without compound).
Panelists were instructed not to eat or drink (except water) for at least 1 h before the test. During the test, panelists were instructed to sip each sample, swirl it around their mouth and then expectorate. After tasting each sample in the pair, panelists were instructed to record the sample that is “sweeter” in taste. Panelists cleansed their palates by rinsing with water, eating a cracker and waiting for an interval of about 5 minutes. Each pair was tasted twice. All samples were tasted at ambient temperatures. Data were analyzed using binomial probabilities.
Approximate levels of sweetness enhancement in column 5 of Table 2 were calculated as follows:
Approximate levels of sweetness enhancement=Sweetener concentration of positive control surpassed by the test sample, divided by sweetener concentration for compound-containing sample (e.g. 1.15×=5.75% sucrose/5% sucrose).

[2] = system: perception of the sweet taste of an aqueous solution of sweetener; assay: Ranking sip and spit test of sweetness perception (R index); conditions: 5% sucrose test sample, vs negative control
Protocol: The effect of the test compounds on the perception of the sweet taste of an aqueous solution of sweetener in humans was evaluated using a ranking “sip and spit” method.
as §1
Compounds were first prepared as a 500-fold concentrated stock solution in 100% ethanol. These concentrated stocks were then added to the aqueous sweetener solutions to result in a final ethanol concentration of 0.2%. The control (positive and negative) samples were also normalized to 0.2% ethanol.
In the ranking test used for compound evaluation, taste panelists (n=15), rank samples in increasing order of sweetness. One set, comprising of 6 samples, was presented to each panelists at a given time and are asked to rank them in order of increasing sweetness.
Panelists were instructed not to eat or drink (except water) for at least 1 h before the test. During the test, panelists were instructed to sip each sample, swirl it around their mouth and then expectorate. After tasting each set, panelists were instructed to rank the 6 samples within the set from least sweet to most sweet. Where rank 1—is lowest in sweetness and rank 6—is highest in sweetness. Panelists cleansed their palates by rinsing with water, eating a cracker and waiting for an interval of 10 minutes. All samples were tasted at ambient temperatures. Each sample was tasted twice.
R index analysis was utilized to determine the degree of difference between a test and control sample. It indicates the level of discrimination between two samples. […] A positive control sample was used to assess the ability of the panelists to accurately discriminate sweetness perception differences from the negative control.

[3] = system: perception of sweet taste, in an aqueous solution; assay: Inherent sweetness assessment, difference from control sip and spit method; conditions: compound 10 ppm in water, no sweetener
Protocol: The aqueous sucrose solutions were prepared by adding, sucrose (by weight), to water to achieve the desired concentration.
Compounds were first prepared as a 500-fold concentrated stock solution in 100% ethanol. These concentrated stocks were then added to water to result in a final ethanol concentration of 0.2%. The control (including positive control) samples were also normalized to 0.2% ethanol. This level of ethanol was not seen to contribute any perceived sweetness.
The intrinsic effect of test compounds on the perception of sweet taste, in an aqueous solution, in humans was evaluated using a difference from control “sip and spit” method employing a verbal category scale.
In this method, panelists (n=12) evaluate one pair of samples at a time—one sample contains water plus compound (i.e. test) while the other contains water without compound (i.e. control). Panelists were instructed to first taste the un-blinded control followed by the test sample and asked to rate the size of sweetness difference between the test and control sample, using a 6 point verbal category scale:
Verbal category scale • No difference • Slight difference • Slight/moderate difference • Moderate difference • Moderate/large difference • Very large difference
4 blinded controls comprising of one negative control (0% sucrose) and 3 positive control samples (0.5% sucrose, 1% sucrose and 2% sucrose) were also included as part of the test to evaluate the ability of panelists to rank the difference in sweetness perception between 0.5% sucrose, 1% sucrose and 2% sucrose compared to 0% sucrose control.
Panelists were instructed not to eat or drink (except water) for at least 1 h before the test. During the test, panelists were instructed to sip each sample, swirl it around their mouth and then expectorate. Panelists cleansed their palates by rinsing with water, eating a cracker and waiting for an interval of about 5 minutes. All samples were tasted at ambient temperatures.
The verbal category response for each test sample was converted into an integer numerical value, from 1 to 6 (e.g. no difference=1 and very large difference=6). Total numbers of panelist responses per integer value were plotted as a histogram. An assessment was then made, comparing mean, mode of the numerical value, and the distribution of the histogram plots, for test samples as compared to that of the positive (0.5% sucrose, 1% sucrose and 2% sucrose) and negative control (0% sucrose) sample. Inherent sweetness levels are then correlated to the positive controls as discrete bins: • Bin 1: 0% sucrose • Bin 2: >0% sucrose—<0.5% sucrose • Bin 3: 0.5% sucrose • Bin 4: >0.5% sucrose—<1% sucrose • Bin 5: 1% sucrose • Bin 6: >1% sucrose—<2% sucrose • Bin 7: 2% sucrose

[4] = compound 10 ppm, significant at R index ≧60

Row | Structure (SMILES) | Fold increase in perceived sweetness ([1]; test sample 4% fructose) [X] | R Index Score [2, 4] | also measured
1 | COc1ccc(C2CC(=O)c3c(O)cc(OCCCC(=O)O)cc3O2)cc1O (centres unmarked) [Compound 4, 4-((5-hydroxy-2-(3-hydroxy-4-methoxyphenyl)-4-oxochroman-7-yl)oxy)butanoic acid] | >1.1 | – | Fold increase in perceived sweetness ([1]; test sample 5% sucrose): >1.1X
2 | CCCOc1ccc(C2CC(=O)c3c(O)cc(O)cc3O2)cc1O (centres unmarked) [Compound 5, 5,7-dihydroxy-2-(3-hydroxy-4-propoxyphenyl)chroman-4-one] | >1.1 | – | –
3 | COc1ccc(C2CC(=O)c3c(O)cc(C)cc3O2)cc1O (centres unmarked) [Compound 6, 5-hydroxy-2-(3-hydroxy-4-methoxyphenyl)-7-methylchroman-4-one] | – | 82 | –
4 | O=C1CC(c2ccc(O)cc2)Oc2cccc(O)c21 (centres unmarked) [Compound 7, 5-hydroxy-2-(4-hydroxyphenyl)chroman-4-one] | – | 71 | –
5 | O=C1CC(c2ccc(O)c(O)c2)Oc2cccc(O)c21 (centres unmarked) [Compound 8, 2-(3,4-dihydroxyphenyl)-5-hydroxychroman-4-one] | – | 69 | –
6 | O=C1CC(c2cccc(O)c2)Oc2cc(O)cc(O)c21 (centres unmarked) [Compound 10, 5,7-dihydroxy-2-(3-hydroxyphenyl)chroman-4-one] | – | 65 | –
7 | O=C1CC(c2cccc(O)c2)Oc2cccc(O)c21 (centres unmarked) [Compound 12, 5-hydroxy-2-(3-hydroxyphenyl)chroman-4-one] | – | – | R Index Score ([2]; compound 2.5 ppm): 62
8 | COC(=O)c1cccc(C2CC(=O)c3c(O)cc(O)cc3O2)c1 (centres unmarked) [Compound 13, methyl 3-(5,7-dihydroxy-4-oxochroman-2-yl)benzoate] | – | 61 | –
9 | COc1ccc(C2CC(=O)c3c(O)cc(OCCCS(=O)(=O)O)cc3O2)cc1O (centres unmarked) [Compound 14, 3-((5-hydroxy-2-(3-hydroxy-4-methoxyphenyl)-4-oxochroman-7-yl)oxy)propane-1-sulfonic acid potassium salt] | >1.1 | – | –
10 | COc1ccc(C2CC(=O)c3c(O)cc(F)cc3O2)cc1O (centres unmarked) [Compound 15, 7-fluoro-5-hydroxy-2-(3-hydroxy-4-methoxyphenyl)chroman-4-one] | >1.1 | – | Correlated Inherent Sweetness Assessment [3]: 0% sucrose
11 | COc1cc(C2CC(=O)c3c(O)cccc3O2)ccc1C (centres unmarked) [Compound 16] | – | – | Fold increase in perceived sweetness ([1]; test sample 5% sucrose): >1.1X
12 | COc1ccc(C2CC(=O)c3c(Cl)cc(O)cc3O2)cc1O (centres unmarked) [Compound 17] | 1.1 | – | –
